In the assay the target is T1, PARP (Mus musculus, UniProt P11103).
T1 construct: endogenous in cells; host or cells: RAW mouse macrophages
Description: PARP activation in peroxynitrite-stimulated cultured macrophages, whole-cell based assay (3H-NAD+ incorporation). The note with it: RAW mouse macrophages, peroxynitrite-induced PARP activation, 10 min pretreatment; for inhibition at 0.1 µM: 100 nM; for inhibition at 0.3 µM: 300 nM. Here is the method: RAW mouse macrophages were cultured in DMEM medium with high glucose and supplemented with 10% fetal bovine serum. Cells were used at 80% confluence in 12-well plates. Cells were pretreated with various concentrations (100 nM-1 μM) of a Tetracyclic Benzamide Derivative for 10 min. Peroxynitrite, a prototypical oxidant which induces DNA single strand breakage, was used to induce PARP activation. Peroxynitrite was diluted in phosphate buffered saline (PBS) (pH 11.0) and added to the cells in a bolus of 50 μl. Cells were then incubated for 20 min. […] After the 20 min incubation, the cells were spun, the medium was aspirated and the cells were resuspended in 0.5 mL assay buffer (56 mM HEPES pH 7.5, 28 mM KCl, 28 mM NaCl, 2 mM MgCl2, 0.01% w/v digitonin and 0.125 μM NAD^+ and 0.5 μCi/ml ^3H-NAD^+). Following an incubation in assay buffer, (10 min at 37° C.), PARP activity was measured as follows: 200 μl ice cold 50% w/v TCA was added and the samples were incubated for 4 h at 4° C. Samples were then spun (10 min @ 10,000 g) and pellets washed twice with ice cold 5% w/v TCA and solubilized overnight in 250 μl 2% w/v SDS/0.1 N NaOH at 37° C. The contents of the tubes were added to 6.5 mL ScintiSafe Plus scintillation liquid (Fisher Scientific) and radioactivity was determined using a liquid scintillation counter (Wallac, Gaithersburg, Md.).

T1 sequence (P11103 whole entry): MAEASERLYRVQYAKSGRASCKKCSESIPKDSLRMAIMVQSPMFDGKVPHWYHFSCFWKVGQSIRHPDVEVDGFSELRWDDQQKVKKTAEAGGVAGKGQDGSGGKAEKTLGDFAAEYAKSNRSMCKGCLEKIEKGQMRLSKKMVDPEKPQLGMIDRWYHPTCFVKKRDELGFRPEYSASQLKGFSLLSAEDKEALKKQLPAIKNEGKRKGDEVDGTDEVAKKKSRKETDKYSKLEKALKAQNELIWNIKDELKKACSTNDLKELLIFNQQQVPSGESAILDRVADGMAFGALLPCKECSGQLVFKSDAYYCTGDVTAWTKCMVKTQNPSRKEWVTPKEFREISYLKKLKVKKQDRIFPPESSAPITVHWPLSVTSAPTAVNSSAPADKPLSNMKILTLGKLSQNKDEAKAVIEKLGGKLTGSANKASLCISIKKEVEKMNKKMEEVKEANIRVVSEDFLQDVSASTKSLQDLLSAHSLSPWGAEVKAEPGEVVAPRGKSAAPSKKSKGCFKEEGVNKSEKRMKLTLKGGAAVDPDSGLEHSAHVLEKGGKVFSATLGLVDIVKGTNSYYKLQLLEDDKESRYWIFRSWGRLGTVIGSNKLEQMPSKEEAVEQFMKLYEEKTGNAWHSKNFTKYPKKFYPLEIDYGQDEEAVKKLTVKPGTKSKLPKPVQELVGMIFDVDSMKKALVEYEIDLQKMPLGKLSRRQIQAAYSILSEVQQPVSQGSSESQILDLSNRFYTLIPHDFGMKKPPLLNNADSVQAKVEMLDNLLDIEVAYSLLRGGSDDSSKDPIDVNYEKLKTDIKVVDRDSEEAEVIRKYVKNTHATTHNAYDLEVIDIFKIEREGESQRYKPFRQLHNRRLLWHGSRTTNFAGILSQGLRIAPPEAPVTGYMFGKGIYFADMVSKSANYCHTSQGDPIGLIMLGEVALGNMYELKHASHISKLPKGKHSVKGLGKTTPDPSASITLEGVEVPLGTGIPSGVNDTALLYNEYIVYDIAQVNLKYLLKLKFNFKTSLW

Regarding `CC(=O)Oc1nc2c3ccccc3oc2c2ccccc12` [Compound 16g, Acetic acid 11-oxa-6-aza-benzo[a]fluoren-5-yl ester], the inhibition (as a rule, the percentage by which the read-out fell short of the control) at 0.1 µM worked out at 40%; the inhibition at 0.3 µM was 66%; the inhibition at 1 µM amounted to 67%.

With `Cc1ccc2c(n1)oc1c3ccccc3c(=O)[nH]c21` [Compound 26a, 9-Methyl-6H-11-oxa-6,10-diaza-benzo[a]fluoren-5-one], the inhibition at 0.1 µM was determined as 36%, the inhibition at 0.3 µM is 54% and the inhibition at 1 µM turned out to be 61%.

`O=c1[nH]c2c(c3ccccc13)-c1ccc(S(=O)(=O)NCCCN3CCOCC3)cc1C2` [Compound 11a, 5-Oxo-5,7-dihydro-6H-indeno[2,1-c]isoquinoline-9-sulfonic acid (3-morpholin-4-yl-propyl)-amide]: the inhibition at 0.3 µM turned out to be 9% and the inhibition at 1 µM stood at 70%.

The values are drawn from US20040229895A1, “Tetracyclic benzamide derivatives and methods of use thereof” (Inotek Pharmaceuticals Corporation, priority 2003, published 2004).
